Our source for the melting point and IC50 values is US7169787B2, “7-azaindoles, use thereof as phosphodiesterase 4 inhibitors and method for producing the same” (Elbion AG, priority 2000, dated 2007).

The target of one data set is PDE 4. Nature of the data set: Inhibition of phosphodiesterase 4 (enzyme preparation from human PMNL, [3H]-cAMP). It is filed as biochemical. As to conditions: PDE 4 from human PMNL cytosol, 0.5 μM [3H]-cAMP. The procedure: The PDE 4 activity is determined in enzyme preparations from human polymorphonuclear […] (PMNL) and the PDE 2, 3 and 5 activity is determined with PDE from human thrombocytes. Human blood was anti-coagulated with citrate. By centrifuging at 700×g for 20 minutes at room temperature, the thrombocyte-rich plasma in the supernatant is separated from the erythrocytes and leukocytes. The thrombocytes are lysed by ultrasound and used in the PDE 3 and PDE 5 assays. For the determination of the PDE 2 activity, the cytosolic thrombocyte fraction is purified on an anionic exchange column by means of NaCl gradients and the PDE 2 peak is obtained for the assay. The PMNLs for the PDE 4 determination are isolated by a subsequent dextran sedimentation, followed by a gradient centrifugation with Ficoll-Paque. After the cells have been washed twice, the erythrocytes, still contained, are lysed within 6 minutes at 4° C. by the addition of 10 mL of hypotonic buffer (155 mM of NH4Cl, 10 mM of NaHCO3, 0.1 mM of EDTA, pH=7.4). The PMNLs, which are still intact, are washed twice with PBS and lysed with ultrasound. The supernatant of a one-hour centrifugation at 4° C. at 48,000×g contains the cytosolic fraction of the PDE 4 and is used for the PDE 4 measurements.
The phosphodiesterase activity is determined using the method described by Thompson et al. with some modifications (Thompson, W. J. and M. M. Appleman, Assay of cyclic nucleotide phosphodiesterase and resolution of multiple molecular forms of the enzyme, Adv. Cycl. Nucl. Res. 1979, 10, 69–92).
The reaction mixtures contain 50 mM of tris hydrochloride (pH 7.4), 5 mM of magnesium chloride, the inhibitors in various concentrations, the corresponding enzyme preparation as well as the further components necessary for determining the individual isoenzymes (see below). The reaction is started by the addition of the substrate, 0.5 μM of [^3H]-cAMP or [^3H]-cGMP (approximately 6000 CPM per test). The final volume is […]. Test substances are mixed as stock solutions in DMSO. The DMSO concentration in the reaction mixture is 1% v/v. The PDE activity is not affected by this concentration of DMSO. After the reaction is started by the addition of substrate, samples are incubated for 30 minutes at 37° C. The reaction is stopped by heating the test tubes for 2 minutes at 110° C. The samples remain for a further 10 minutes in ice. The addition of 30 μL of 5′-nucleotidase (1 mg/mL, from a poisonous snake suspension from Crotalus adamanteus) is followed by a 10-minutes incubation at 37° C. The samples are stopped on ice, in each case 400 μL of a mixture of Dowex, water and ethanol (1+1+1) is added, mixed well and incubated once again for 15 minutes on ice. The reaction vessels are centrifuged for 20 minutes at 3000×g. Aliquots of the supernatant (200 μL) are transferred directly to scintillation vessels. After the addition of 3 mL of scintillator, the samples are measured in the beta counter.
[^3H]-cAMP is used as substrate for the determination of the PDE 4, 3 and 2 activity and [^3H]-cGMP is used as substrate for the determination of the PDE 5 activity. The enzyme activities, which are nonspecific in each case, are determined in the presence of 100 μM of Rolipram for the determination of PDE 4 and in the presence of 100 μM of IBMX for the determination of the PDE 3 and 5 and subtracted from the test values. The incubation formulations of the PDE 3 assays contained 10 μM of Rolipram, in order to inhibit possible contaminations by PDE 4. The PDE 2 is tested with an SPA assay of the Amersham Company. The assay is carried out in the presence of the activator of the PDE 2 (5 μM of cGMP).

A word on the melting point: it is the temperature of the solid-liquid transition. What is called IC50 is the midpoint of a concentration-inhibition curve. A high value points to weaker potency in that assay. `CC(C)Cn1cc(C(=O)C(=O)Nc2c(Cl)cncc2Cl)c2cccnc21` [Example 27] had a melting point of 152 to 154 °C. The molecule further yielded an IC50 at PDE 4 of 2 nM.

For the molecule `O=C(Nc1c(Cl)cncc1Cl)C(=O)c1cn(Cc2ccc(F)cc2)c2ncccc12` [Example 14], the IC50 at PDE 4 was 4 nM.
